# Data: patent US6703380B2, “Prevention of cancer” (Colotech A/S, priority 1999, dated 2004)
# Where “and” joins values, the source holds several entries; their conditions need not be identical. Equal entries are not always repeated.
# Columns and labels:
# [1] = system: human colon cancer cell lines (LoVo); details: in vitro, including CEA-producing cell lines; cited from earlier work
# solid, human xenografts = details: in vivo (mice); cited from earlier work
# [2] = system: aberrant crypt foci (ACF) of the colon/rectum in AOM-induced rats; assay: ACF of the colon/rectum in AOM-induced rats, Example 2; assay type: in vivo, rat
# Description: The in vivo study of the effect on prevention of CRC in AOM (Azoxymethane) induced rats The rats are induced s.c 1× week in 2 weeks with an AOM solution. The effect of the specific treatment is evaluated due to the number of aberrant crypt foci (ACF) of the colon/rectum in the AOM-induced rats. The aberrant crypt score is evaluated by stereomicroscopy (40×) upon staining with Giemsa-solution (6 ml conc. Giemsa in 50 ml of PBS, pH 7.1). The crypt size is categorised as small, medium, large and X-large. The number of animals is 80 with 16 in each group. The medicaments are administered with the food. The section is 18 weeks from the first dosage. […] Data for weight, food and water are registered and analysed “Small” in the third column is the sum of small and medium of the first column “Large” in the third column is the sum of large and x-large the of second column
# [3] = system: stroke, acute myocardial infarction and/or cardiovascular death; details: low-dose; cited from earlier work
# [4] = following 3 months of therapy; cited from earlier work
# [5] = count per animal, listed as Asp 200
smiles,measurement,setting,value
"C=C1/C(=C\C=C2/CCC[C@]3(C)[C@@H]([C@H](C)CCCC(C)(C)O)CC[C@@H]23)C[C@@H](O)C[C@@H]1O [1,25DHC, 1,25 dihydroxycholecalciferol]",Growth of human colon cancer cell lines,[1],inhibits the growth
same,"Growth of solid, human xenografts","solid, human xenografts",suppress growth
"CC(=O)Oc1ccccc1C(=O)O [ASA, acetylsalicylic acid]","Effect on (large) ACF, in words","[2]; aspirin 200 ppm without or with Ca and 1,25 DHC",without effect
same,"Small ACF, individual rat","[2]; count per animal, section 18 weeks from first dosage, listed as Asp 200",92 and 87 and 20 and 51 and 31 and 82 and 73 (2×) and 44 (2×) and 55 and 47 and 40 and 22 and 46 and 63
same,"Large (sum of large and x-large) ACF, individual rat",[2]; [5],15 and 9 and 2 (3×) and 8 and 5 (2×) and 3 (3×) and 6 and 1 (2×) and 7 and 4
same,"Large ACF, individual rat",[2]; [5],13 and 8 and 2 (3×) and 5 (4×) and 3 (3×) and 1 (2×) and 6 and 4
same,"Medium ACF, individual rat",[2]; [5],74 and 45 and 8 and 34 and 10 and 51 and 35 and 31 and 22 and 49 and 21 and 9 and 26 and 47 and 18 and 50
same,"Small (sum of small and medium) ACF, individual rat",[2]; [5],166 and 132 and 28 and 85 and 41 and 133 and 108 and 75 and 77 and 96 and 61 and 31 and 72 and 120 and 62 and 113
same,"Total ACF, individual rat",[2]; [5],181 and 141 and 30 and 93 and 43 and 138 and 111 and 78 and 80 and 102 and 62 and 33 and 79 and 125 and 66 and 114
same,"X-Large ACF, individual rat",[2]; [5],2 and 1 (3×) and 0 (11×) and 3
same,"Large (sum of large and x-large) ACF, Mean",[2]; group mean,4.75
same,"Large ACF, Mean",[2]; group mean,4.25
same,"Medium ACF, Mean",[2]; group mean,33.13
same,"Small (sum of small and medium) ACF, Mean",[2]; group mean,87.50
same,"Small ACF, Mean",[2]; group mean,54.38
same,"Total ACF, Mean",[2]; group mean,92.25
same,"X-Large ACF, Mean",[2]; group mean,0.50
same,"Relative risk-reduction in relation to stroke, acute myocardial infarction and/or cardiovascular death",[3],approx. 25%
O=C(O)c1cc(/N=N/c2ccc(S(=O)(=O)Nc3ccccn3)cc2)ccc1O [sulphasalazine],Relative risk reduction,[4],0.38 (0.2 to 0.7)
